Columns and labels:
human NSCLC tumor biopsy = assay: EVOC of NSCLC patient biopsies, viability; type: cell-based
Text: Error bars represent standard error. […] Scale bar represents 50 μm. […] Error bars represent standard error. […] Scale bar represents 50 μm.
Scale bar represents 50 μm. […] Scale bar represents 50 μm. […] Scale bar represents 50 μm.

[1] = tested on: HT-29 orthotopic xenograft colorectal tumors; assay: EVOC of orthotopic colon tumors, pERK and H&E/BrDu; type: cell-based, human; details: AZD4547 0.5 μM, 96 hours of incubation
Text: 500-700 μmm^3 tumors were resected, sliced, and cultured ex-vivo. Following 4 days of drug treatment, slices were fixed and embedded in paraffin blocks. FFPE slices were stained by H&E, and the percentage of viable cancer cells was morphologically assessed on H&E stained sections by a pathologist as the ratio between viable cancer cell area and total cancer area (viable cancer cells plus necrotic cancer cells). […] Each black dot in a given treatment condition represents a different tumor. P-values were calculated by two-sided t-test. *** P<0.001 ** P<0.01. Error bars represent standard error. […] Names of the six secreted factors with the highest rScore are shown. Factors related to TNF pathways are marked in gray. Results represent the average of at least two experiments. […] Cohort size pre-treatment: 5-6, P-values of the difference on the last day of experiment were calculated by one-sided Mann-Whitney test. * P<0.05. […] Viability percentage was calculated based on the entire field of view per treatment combination. […] FFPE slices were stained by pERK and pERK activity was assessed by a pathologist. […]
For the ex-vivo experiments EVOCs from immunocompromised mice bearing human tumors were generated, as further described hereinbelow. For the in-vivo validation experiments, mice bearing subcutaneous tumors were used; and response was measured by evaluating tumor volume. […]

AZD4547 was tested, and the “response, cancer cell viability” value (human NSCLC tumor biopsy; patient refractory to osimertinib, osimertinib 4 μM with AZD4547 2 μM) was “improved response as compared to osimertinib alone”, the cancer cells viability (human NSCLC tumor biopsy; treatment-naïve patient, AZD4547 0.2 μM added to gefitinib 1.6 μM) was “significantly reduced cancer cells viability” and the cancer cell viability (human NSCLC tumor biopsy; treatment-naïve patient, in combination with osimertinib 4 μM) was “did not affect cancer cell viability”. The “H&E and BrDu staining of tissue” value [1] was “live and proliferating tissue”.
